Assay results: paper PMC2229574 (The Journal of General Physiology, 2003)
Where “and” joins values, the source holds several entries; their conditions need not be identical. Identical values can stand only once. Like-named read-outs stand apart in the source and are kept apart here.

How the values were obtained:
[1] = target: mouse AChR β-subunit G98A (Mus musculus, UniProt P02716+P04756+P09690+P20782, G121A); conditions: 20 mM choline
mouse AChR αD97C = mouse AChR αD97C (Mus musculus, UniProt P02716+P04756+P20782, D117C)
[2] = tested on: hybrid AChR (one wild-type α-subunit and one D97A α-subunit), hybrid 1; conditions: 20 mM choline
mouse AChR αD97E [3] = target: T1, mouse AChR αD97E (Mus musculus, UniProt P02716+P04756+P20782, D117E); assay: cell-based
mouse AChR αD97F = mouse AChR αD97F (Mus musculus, UniProt P02716+P04756+P20782, D117F)
mouse AChR αD97I = mouse AChR αD97I (Mus musculus, UniProt P02716+P04756+P20782, D117I)
[4] = target: T2, wild-type mouse AChR (α2βδɛ) (Mus musculus, UniProt P02716+P04756+P20782); conditions: wt; for L2: choline (Table III / text)
mouse AChR αD97M = mouse AChR αD97M (Mus musculus, UniProt P02716+P04756+P20782, D117M)
[5] = target: mouse AChR β-subunit D97A (Mus musculus, UniProt P02716+P04756+P09690+P20782, D120A); conditions: 20 mM choline
mouse AChR αD97L = mouse AChR αD97L (Mus musculus, UniProt P02716+P04756+P20782, D117L)
mouse AChR αD97Q = mouse AChR αD97Q (Mus musculus, UniProt P02716+P04756+P20782, D117Q)
[6] = target: mouse AChR δ-subunit N98A (Mus musculus, UniProt P02716+P04756+P20782, N122A); conditions: 20 mM choline
mouse AChR αD97H = mouse AChR αD97H (Mus musculus, UniProt P02716+P04756+P20782, D117H); assay: cell-based
mouse AChR αD97G = mouse AChR αD97G (Mus musculus, UniProt P02716+P04756+P20782, D117G); conditions: for β2 (diliganded channel opening rate constant): 20 mM choline
[7] = target: mouse AChR δ-subunit D99V (Mus musculus, UniProt P02716+P04756+P20782, D123V); conditions: 20 mM choline
mouse AChR αD97E [8] = target: T1, mouse AChR αD97E; conditions: for L2: kinetic modeling
mouse AChR αD97R = mouse AChR αD97R (Mus musculus, UniProt P02716+P04756+P20782, D117R)
[9] = target: T2, wild-type mouse AChR (α2βδɛ); conditions: cited from earlier work
[10] = target: mouse AChR β-subunit D97V (Mus musculus, UniProt P02716+P04756+P09690+P20782, D120V); conditions: 20 mM choline
[11] = target: mouse AChR β-subunit G98V (Mus musculus, UniProt P02716+P04756+P09690+P20782, G121V); conditions: 20 mM choline
[12] = tested on: hybrid AChR (one wild-type α-subunit and one D97A α-subunit), hybrid 2; conditions: 20 mM choline
[13] = target: mouse AChR δ-subunit D99A (Mus musculus, UniProt P02716+P04756+P20782, D123A); conditions: 20 mM choline
[14] = read-out: k+ (association rate constant, single TBS)
[15] = read-out: k− (dissociation rate constant, single TBS)
[16] = joint fit choline 1, 2 and 5 mM, Scheme I

Chain of mouse AChR αD97G (P04756 21-457 D117G): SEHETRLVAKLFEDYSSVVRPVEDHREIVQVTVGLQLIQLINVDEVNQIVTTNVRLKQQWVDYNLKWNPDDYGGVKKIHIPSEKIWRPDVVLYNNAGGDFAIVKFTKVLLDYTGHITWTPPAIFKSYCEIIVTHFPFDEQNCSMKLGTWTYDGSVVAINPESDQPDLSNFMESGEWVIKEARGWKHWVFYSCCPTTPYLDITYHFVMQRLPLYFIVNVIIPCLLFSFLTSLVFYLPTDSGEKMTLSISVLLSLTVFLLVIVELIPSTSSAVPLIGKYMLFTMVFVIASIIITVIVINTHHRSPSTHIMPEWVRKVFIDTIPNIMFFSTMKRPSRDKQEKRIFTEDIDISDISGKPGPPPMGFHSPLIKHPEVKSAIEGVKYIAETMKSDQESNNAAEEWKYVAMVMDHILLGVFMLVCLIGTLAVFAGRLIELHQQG
Chain of mouse AChR αD97G (P09690 24-501 partner): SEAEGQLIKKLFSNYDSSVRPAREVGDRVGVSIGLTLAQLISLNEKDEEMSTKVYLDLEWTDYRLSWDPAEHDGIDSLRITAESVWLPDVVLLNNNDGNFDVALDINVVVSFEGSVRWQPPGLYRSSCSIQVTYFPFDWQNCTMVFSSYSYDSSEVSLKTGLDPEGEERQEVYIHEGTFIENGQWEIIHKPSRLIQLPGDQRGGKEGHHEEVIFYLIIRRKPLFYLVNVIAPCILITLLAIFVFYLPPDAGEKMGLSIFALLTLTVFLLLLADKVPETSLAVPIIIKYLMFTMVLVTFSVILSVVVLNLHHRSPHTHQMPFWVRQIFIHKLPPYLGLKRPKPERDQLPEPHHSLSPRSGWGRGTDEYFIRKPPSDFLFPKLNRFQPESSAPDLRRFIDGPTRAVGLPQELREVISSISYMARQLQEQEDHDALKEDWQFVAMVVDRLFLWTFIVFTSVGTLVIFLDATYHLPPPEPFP
Chain of mouse AChR αD97G (P02716 25-520): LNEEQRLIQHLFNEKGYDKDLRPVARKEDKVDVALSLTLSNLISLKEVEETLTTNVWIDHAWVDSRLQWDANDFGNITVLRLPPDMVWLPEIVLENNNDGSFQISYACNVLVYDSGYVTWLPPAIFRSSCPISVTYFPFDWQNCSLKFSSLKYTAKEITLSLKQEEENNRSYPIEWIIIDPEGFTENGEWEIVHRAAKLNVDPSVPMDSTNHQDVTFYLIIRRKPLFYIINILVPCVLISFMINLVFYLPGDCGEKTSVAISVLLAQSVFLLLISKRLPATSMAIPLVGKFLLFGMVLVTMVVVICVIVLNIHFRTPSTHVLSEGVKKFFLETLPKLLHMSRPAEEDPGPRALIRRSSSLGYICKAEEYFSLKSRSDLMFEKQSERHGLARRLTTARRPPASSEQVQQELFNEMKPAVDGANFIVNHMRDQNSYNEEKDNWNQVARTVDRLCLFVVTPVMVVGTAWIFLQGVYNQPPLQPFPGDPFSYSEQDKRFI
Chain of mouse AChR αD97G (P20782 21-493, stated change not applied): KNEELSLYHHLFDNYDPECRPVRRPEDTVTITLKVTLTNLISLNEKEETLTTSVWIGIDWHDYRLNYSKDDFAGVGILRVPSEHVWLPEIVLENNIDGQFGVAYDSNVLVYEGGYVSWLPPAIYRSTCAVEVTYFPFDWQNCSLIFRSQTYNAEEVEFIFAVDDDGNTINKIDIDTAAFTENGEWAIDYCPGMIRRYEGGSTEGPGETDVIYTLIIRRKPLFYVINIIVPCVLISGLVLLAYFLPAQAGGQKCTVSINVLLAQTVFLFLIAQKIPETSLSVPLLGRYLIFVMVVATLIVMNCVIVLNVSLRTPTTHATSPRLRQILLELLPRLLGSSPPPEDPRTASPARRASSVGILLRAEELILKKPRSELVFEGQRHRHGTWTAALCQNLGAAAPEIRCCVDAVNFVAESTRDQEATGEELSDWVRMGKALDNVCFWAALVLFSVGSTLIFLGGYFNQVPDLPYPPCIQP
T2 sequence (P04756 21-457): as the sequence (P04756 21-457 D117G) above, with G97D counted along it
T2 sequence (P09690 24-501 partner): as the sequence (P09690 24-501 partner) above
T2 sequence (P02716 25-520): as the sequence (P02716 25-520) above
T2 sequence (P20782 21-493): as the sequence (P20782 21-493, stated change not applied) above

**Q.** What does the source list for `C[N+](C)(C)CCO` [choline]?
**A.** α2* (apparent channel closing rate constant) [1]: 861 s⁻¹; β2 (channel opening rate constant) [1]: 49 s⁻¹; α2 (diliganded channel closing rate constant) (mouse AChR αD97C; 0.4 mM choline): 2,172 s^−1; β2 (diliganded channel opening rate constant) (mouse AChR αD97C; 20 mM choline): 531 s⁻¹; L2 (diliganded gating equilibrium constant, β2/α2) (mouse AChR αD97C; choline): 0.244; L2-ratio (mut/wt) (mouse AChR αD97C; choline): 5.13; ΔΔG0 for channel gating, 0.59 ln(L2^wt/L2^mut) [2]: 1.96 kcal mol^−1; Kd (mouse AChR αD97E [3]; Kd (k−/k+), αD97E, choline, kinetic modeling, Scheme I): 2100 µM and 2140 µM; kon (mouse AChR αD97E [3]; [14]): 2.84e+06 M⁻¹ s⁻¹; koff (mouse AChR αD97E [3]; [15]): 6070 s⁻¹; α2 (diliganded channel closing rate constant) (mouse AChR αD97F; 0.4 mM choline): 1,831 s^−1; β2 (diliganded channel opening rate constant) (mouse AChR αD97F; 20 mM choline): 2,748 s^−1; L2 (diliganded gating equilibrium constant, β2/α2) (mouse AChR αD97F; choline): 1.501; L2-ratio (mut/wt) (mouse AChR αD97F; choline): 31.52; α2 (diliganded channel closing rate constant) (mouse AChR αD97I; 0.4 mM choline): 2,801 s^−1; β2 (diliganded channel opening rate constant) (mouse AChR αD97I; 20 mM choline): 60 s⁻¹; L2 (diliganded gating equilibrium constant, β2/α2) (mouse AChR αD97I; choline): 0.022; L2-ratio (mut/wt) (mouse AChR αD97I; choline): 0.45; α2 (diliganded channel closing rate constant) ([4]; 0.4 mM choline): 2,100 s^−1; β2 (diliganded channel opening rate constant) ([4]; 20 mM choline): 100 s⁻¹; β2 (channel opening rate constant) ([4]; 20 mM choline (Table VIII)): 100 s⁻¹; α2* (apparent channel closing rate constant) ([4]; 20 mM choline, ∼2-fold smaller than α2 because of channel block): 1,100 s^−1; L2 (diliganded gating equilibrium constant, β2/α2) ([4]; choline): 0.048; β2 ([4]; choline (Table III / Fig. 4)): 100 s⁻¹; L2 [4]: 0.05; L2 ([4]; listed as Choline): 0.047; α2 ([4]; choline (Table III)): 2,100 s^−1; α2 (diliganded channel closing rate constant) (mouse AChR αD97M; 0.4 mM choline): 2,255 s^−1; β2 (diliganded channel opening rate constant) (mouse AChR αD97M; 20 mM choline): 835 s⁻¹; L2 (diliganded gating equilibrium constant, β2/α2) (mouse AChR αD97M; choline): 0.370; L2-ratio (mut/wt) (mouse AChR αD97M; choline): 7.78; α2* (apparent channel closing rate constant) [5]: 1,320 s^−1; β2 (channel opening rate constant) [5]: 72 s⁻¹; α2 (diliganded channel closing rate constant) (mouse AChR αD97L; 0.4 mM choline): 2,684 s^−1; β2 (diliganded channel opening rate constant) (mouse AChR αD97L; 20 mM choline): 91 s⁻¹; L2 (diliganded gating equilibrium constant, β2/α2) (mouse AChR αD97L; choline): 0.034; L2-ratio (mut/wt) (mouse AChR αD97L; choline): 0.71; α2 (diliganded channel closing rate constant) (mouse AChR αD97Q; 0.4 mM choline): 2,016 s^−1; β2 (diliganded channel opening rate constant) (mouse AChR αD97Q; 20 mM choline): 6,006 s^−1; L2 (diliganded gating equilibrium constant, β2/α2) (mouse AChR αD97Q; choline): 2.979; L2-ratio (mut/wt) (mouse AChR αD97Q; choline): 62.56; α2* (apparent channel closing rate constant) [6]: 1,335 s^−1; β2 (channel opening rate constant) [6]: 36 s⁻¹; Kd (mouse AChR αD97H; Kd (k−/k+), αD97H, choline, kinetic modeling, Scheme I): 2800 µM and 2840 µM; kon (mouse AChR αD97H; [14]): 1.06e+06 M⁻¹ s⁻¹; koff (mouse AChR αD97H; [15]): 2990 s⁻¹; α2 (diliganded channel closing rate constant) (mouse AChR αD97G; αD97G kinetic mode G1, 0.4 mM choline): 2,105 s^−1; β2 (diliganded channel opening rate constant) (mouse AChR αD97G; αD97G kinetic mode G1): 421 s⁻¹; L2 (diliganded gating equilibrium constant, β2/α2) (mouse AChR αD97G; αD97G kinetic mode G1, choline): 0.200; L2-ratio (mut/wt) (mouse AChR αD97G; αD97G kinetic mode G1, choline): 4.20; β2 (diliganded channel opening rate constant) (mouse AChR αD97G; αD97G kinetic mode G2): 570 s⁻¹; L2 (diliganded gating equilibrium constant, β2/α2) (mouse AChR αD97G; αD97G kinetic mode G2, choline): 0.605; α2* (apparent channel closing rate constant) [7]: 561 s⁻¹; β2 (channel opening rate constant) [7]: 117 s⁻¹; α2 (diliganded channel closing rate constant) (mouse AChR αD97E [8]; 0.4 mM choline): 2,076 s^−1; β2 (diliganded channel opening rate constant) (mouse AChR αD97E [8]; 20 mM choline): 2,967 s^−1; L2 (diliganded gating equilibrium constant, β2/α2) (mouse AChR αD97E [8]; choline): 1.429; β2 from saturation of the effective opening rate (mouse AChR αD97E [8]; choline, fit by Eq. 1): 2,875 s^−1; L2 (equilibrium gating constant) from Popen dose–response analysis (mouse AChR αD97E [8]; choline, fit by Eq. 2): 2.9 ± 0.7 and 2.9; L2 (mouse AChR αD97E [8]; choline, Scheme I): 1.3 ± 0.2; L2 (mouse AChR αD97E [8]; choline, Scheme I, listed as Choline): 1.31 ± 0.21; α2 (mouse AChR αD97E [8]; [16]): 2,293 ± 214 s^−1; β2 (mouse AChR αD97E [8]; [16]): 3,024 ± 131 s^−1; α2 (diliganded channel closing rate constant) (mouse AChR αD97R; 0.4 mM choline): 1,653 s^−1; β2 (diliganded channel opening rate constant) (mouse AChR αD97R; 20 mM choline): 10,951 s^−1; L2 (diliganded gating equilibrium constant, β2/α2) (mouse AChR αD97R; choline): 6.624; L2-ratio (mut/wt) (mouse AChR αD97R; choline): 139.12; choline dissociation from open AChRs (value subtracted from the α2 estimate) ([9]; ref Cymes et al., 2002): 200 s⁻¹; channel-opening rate constant, times slower than for ACh ([9]; wt AChRs, ref Zhou et al., 1999, Grosman and Auerbach, 2000a): 500 times; α2* (apparent channel closing rate constant) [10]: 762 s⁻¹; β2 (channel opening rate constant) [10]: 85 s⁻¹; α2* (apparent channel closing rate constant) [11]: 471 s⁻¹; β2 (channel opening rate constant) [11]: 80 s⁻¹; ΔΔG0 for channel gating, 0.59 ln(L2^wt/L2^mut) [12]: 0.95 kcal mol^−1; α2* (apparent channel closing rate constant) [13]: 630 s⁻¹; β2 (channel opening rate constant) [13]: 146 s⁻¹
